{"source": "patent US6287813A", "about": "“Antibiotic-based gene regulation system” (Cistronics Cell Technology GmbH, priority 1999, dated 2001)", "molecular_target": "T1, Pip/PPTR (Streptomyces coelicolor, UniProt Q9ADN3)", "T1 construct": "gel retardation with ptr promoter DNA (PPTR) of S. pristinaespiralis", "T1 sequence (Q9ADN3 1-252)": "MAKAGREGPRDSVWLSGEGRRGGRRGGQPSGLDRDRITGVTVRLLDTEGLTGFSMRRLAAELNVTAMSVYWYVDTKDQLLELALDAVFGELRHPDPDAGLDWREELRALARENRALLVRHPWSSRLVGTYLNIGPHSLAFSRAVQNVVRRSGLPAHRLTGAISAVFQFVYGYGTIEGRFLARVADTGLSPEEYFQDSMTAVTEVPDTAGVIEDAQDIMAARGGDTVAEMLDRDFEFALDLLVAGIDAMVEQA", "experiment": "Gel retardation assay of Pip/PPTR interaction", "type": "binding", "details": "Pip 0.2 pmol titrated with 50 pmol to 0.01 pmol antibiotic", "text": "FIG. 1: Gel retardation assay showing Pip/PPTR interaction. PPTR of S. pristinaespiralis contains 3 dyad symmetrical binding sites (lane A; PPTR in the absence of Pip) all of which are saturated at relatively large amounts of purified Pip (0.4 pmol; […]) resulting in a single shifted band. Smaller amounts of Pip (0.02 pmol) presented an intermediate situation in which all possible permutations of site occupancy are represented in three distinct retarded bands (lane C). Pip (0.2 pmol lanes D-M) was titrated with a range of PI from 50 pmol to 0.01 pmol (lanes D-H; D: 50 pmol; E: 10 pmol; F: 1 pmol; G: 0.1 pmol; H: 0.01 pmol). […]\nChinese hamster ovary cells (CHO-K1, ATCC: CCL 61), Baby hamster kidney cells (BHK-21, ATCC: CRL-8544), and HeLa cells (ATCC: CRL-7923) as well as stable cell lines CHO-PIT1, CHO-PIT2, CHO-TWIN195, CHO-TWIN1108 and CHO-PIT1-SEAP were cultured as described before (Fussenegger et al., 1998, Nat. Biotechnol. 16,468-472) in the presence of appropriate antibiotics: G418 400 μg/ml; zeocin 100 μg/ml. […] Transient transfected cells were routinely analyzed after 48 h for GFP or SEAP expression using fluorescence microscopy and p-nitrophenolphosphate-based light absorbance timecourse, respectively, as described before (Fussenegger et al., 1998, Nat. Biotechnol. 16, 468-472; Berger et al., 1988, Gene 66, 1-10 b). […]", "data": [{"substance": "pristinamycin I [PI]", "values": [{"measurement": "Release of Pip from PPTR", "value": "completely released"}]}]}
